Test results published in US20020169101A1, “Treatment of sexual dysfunction” (priority 1999, published 2002).
“Also recorded” adds a separate entry of the source.

Columns and labels:
[1] = system: female rat sexual proceptivity; experiment: Female rat sexual proceptivity test (time investigating male vs female stimulus); type: in vivo
Procedure: Ovariectomised adult female Sprague Dawley rats (180-200 g, from Charles River) were housed in groups of 6 in a reversed lighting system of 12 h light:dark (lights off 7.00-19.00 h). Two weeks after ovariectomy they were used for sexual activity tests. The experiments started at least 5 h into the dark period.
Tests were carried out in a circular arena of 90 cm diameter, surrounded by a 30 cm high wall. Two small cages with wire-mesh front (15×15 cm) are fixed into the wall such that the front of the cage is <> with the wall and the 2 cages are opposite each other. They contained two stimuli animals: an intact sexually experienced male and a receptive female (ovariectomised, primed with 5 μg oestradiol benzoate dissolved in corn oil and injected subcutaneously 48 hours before the test and with 0.5 mg of progesterone four hours before the test). Sexually naive test and control animals were used. Forty eight hours before the tests, both the test and control animals were primed with 5 μg oestradiol benzoate. For animals used as positive controls, progesterone (0.5 mg/0.1 ml) was dissolved in corn oil and administered subcutaneously (s.c.), 4 h before the test. Test and control animals were introduced one at a time for 10 minute periods into the arena. During the 10 min test, the time that the test or positive control animal spent investigating each stimulus animal was noted. The arena was thoroughly cleaned between animals. The position of the male/female stimuli boxes was randomised between animals, in order to avoid place preference. The difference in the percentage of time spent investigating the male minus the female stimuli was calculated, out of the total time spent investigating stimuli animals.
Compound (1) was dissolved in 100% β-cyclodextrin and then diluted with saline to a final solution of 50% 2-hydroxypropyl-β-cyclodextrin. It was administered intraperitoneally (i.p.) at doses of 3 and 10 mg/kg, in a dosing volume of 1 ml/kg, 1 h before tests. Progesterone (0.5 mg/0.1 ml) was dissolved in corn oil and administered subcutaneously (s.c.), 4 h before test, as a positive control.
Ovariectomised adult female Sprague Dawley rats (180-200 g) were housed in groups of 5 in a reversed lighting system of 12 h light:dark (lights off 5.00-17.00 h). They were used for the experiments at least two weeks after ovariectomy. Forty eight hours before tests, the animals were primed with oestradiol benzoate (5 μg/[…] in corn oil, s.c.). On day 1, progesterone (0.5 mg/0.1 ml, in corn oil, s.c.) was administered to one of the groups 4 h before tests, as a positive control. Compound (1) (15 mg/kg, i.p.) was administered in 50% 2-hydroxypropyl-β-cyclodextrin, 1 h before tests. The test lasted 10 minutes and was carried out as described before. The difference in the percentage of time spent investigating the male minus the female stimuli was calculated, out of the total time spent investigating stimuli animals. Animals were submitted to a test on day 1 and on day 15. From day 2 to 14 the Compound (1) group received a daily injection of the compound (15 mg/kg, i.p.), while both the vehicle and the progesterone groups received an injection of vehicle. On day 15 the test took place again, as described for day 1.
Ovariectomised female rats (Sprague Dawley, obtained from Charles River, UK) were stereotaxically implanted (coordinates 0.89 mm behind Bregma, 1.3 mm lateral and 2.5 mm vertical) with stainless steel cannulae (6 mm long, O.D. 0.75 mm), held in place with dental cement. Animals were housed in groups of three and returned to a reversed lighting system of 12 h light:dark (lights off 5.00-17.00 h). Correct placement of the cannulae was assessed post-mortem. Rats were used for tests two weeks after ovariectomy (one week after cannulation). The experiments started at least 5 h into the dark period. […]

[2] = Plasma sexual hormone levels in ovariectomised female rats (radioimmunoassay); type: in vivo, rat
Procedure: Ovariectomised adult female Sprague Dawley rats (180-200 g) were housed in groups of 6 in a reversed lighting system of 12 h light:dark (lights off 7.00-19.00 h). They were used for the experiments at least two weeks after ovariectomy. Forty eight hours before tests, the animals were primed with oestradiol benzoate (5 μg/0.1 ml in corn oil, s.c.). Progesterone (0.5 mg/0.1 ml, in corn oil, s.c.) was administered 4 h before blood collection, as a positive control. Compound (1) (3-10 mg/kg, i.p.) was administered in 50% 2-hydroxypropyl-β-cyclodextrin, 1 h prior to blood collection. Blood was collected from the trunk, after decapitation. It was immediately centrifuged (3500 r.p.m., 4° C., 5 min) and the plasmas frozen until assayed for hormonal content, using commercially available radioimmunoassay kits (^125I-labelled hormones) for oestradiol, progesterone, LH, FSH and prolactin.

human NMB receptor (BB1) = target: T1, human NMB receptor (BB1) (Homo sapiens, UniProt P28336); experiment: BB1 binding assay ([125I][Tyr4]bombesin displacement, CHO-K1 membranes); details: read-out: hBB1 Ki
T1 construct: expressed in transfected cells; membranes prepared from the cells
Procedure, shortened: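 Membranes from CHO-K1 cells stably expressing human NMB (BB1) or GRP (BB2) receptors, in 50 mM Tris-HCl pH 7.4 with BSA and protease inhibitors, incubated with [125I][Tyr4]bombesin (<0.1 nM) for 60 min (BB1) or 90 min (BB2). Nonspecific binding defined with 1 μM bombesin; filtration and gamma counting; IC50 converted to Ki by Cheng-Prusoff.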

T1 sequence (P28336 whole entry): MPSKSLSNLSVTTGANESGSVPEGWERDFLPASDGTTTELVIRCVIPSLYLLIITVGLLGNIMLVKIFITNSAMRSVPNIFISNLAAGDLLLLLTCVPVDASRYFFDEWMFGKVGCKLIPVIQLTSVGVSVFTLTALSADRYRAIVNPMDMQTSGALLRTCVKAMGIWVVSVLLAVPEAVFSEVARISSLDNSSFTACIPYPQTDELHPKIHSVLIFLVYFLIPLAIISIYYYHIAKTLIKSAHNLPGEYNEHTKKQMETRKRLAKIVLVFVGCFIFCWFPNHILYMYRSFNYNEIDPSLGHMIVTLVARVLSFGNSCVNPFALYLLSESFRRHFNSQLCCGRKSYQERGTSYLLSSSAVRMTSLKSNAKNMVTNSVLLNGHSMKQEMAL

Row | Ki (human NMB receptor (BB1)) [nM] | Structure (SMILES) | body weight, general behaviour, tolerability on repeated administration ([1]; 15 mg/kg i.p. daily for 15 days, female rats) | proceptivity on day 1 vs vehicle ([1]; Compound (1) 15 mg/kg i.p. 1 h before test, progesterone 0.5 mg s.c. 4 h before test (FIG. 3)) | percentage of time spent investigating the male stimulus ([1]; i.c.v., 3-30 μg/rat, 10 min before test (FIG. 4)) | percentage of time spent investigating the male stimulus ([1]; i.p., 3 and 10 mg/kg, 1 h before test, vs vehicle (FIG. 1)) | plasma levels of progesterone ([2]; Compound (1) 3-10 mg/kg i.p. 1 h, progesterone 0.5 mg s.c. 4 h before blood collection, vs vehicle (FIG. 6)) | plasma levels of LH ([2]; Compound (1) 3-10 mg/kg i.p. 1 h, progesterone 0.5 mg s.c. 4 h before blood collection, vs vehicle (FIG. 9)) | plasma levels of oestradiol ([2]; Compound (1) 3-10 mg/kg i.p. 1 h before blood collection (FIG. 7)) | plasma levels of prolactin ([2]; Compound (1) 3-10 mg/kg i.p. 1 h before blood collection (FIG. 8)) | plasma levels of FSH ([2]; Compound (1) 3-10 mg/kg i.p. 1 h before blood collection (FIG. 10))
1 | – | COc1ccc(C2(CNC(=O)[C@](C)(Cc3c[nH]c4ccccc34)NC(=O)Nc3ccc([N+](=O)[O-])cc3)CCCCC2)nc1 [Compound (1), (S) 3-(1H-Indol-3-yl)-N-[1-(5-methoxy-pyridin-2-yl)-cyclohexyl-methyl]-2-methyl-2-[3-(4-nitro-phenyl)-ureido]-propionamide] | no changes in body weight or general behaviour; also recorded: well tolerated | stimulatory effect on proceptivity | dose-dependently (3-30 μg/rat) increased the percentage of time spent investigating the male stimulus | dose-dependently (3 mg/kg-10 mg/kg) increased the percentage of time spent investigating the male stimulus | no effect | no effect | no effect | no effect | no effect
2 | 0.25 | C[C@@](Cc1c[nH]c2ccccc12)(NC(=O)Nc1ccc([N+](=O)[O-])cc1)C(=O)NCC1(c2ccc(N)cc2)CCCCC1 [Compound 3, (2S)-N-{[1-(4-aminophenyl)cyclohexyl]methyl}-3-(1H-indol-3-yl)-2-methyl-2-{[(4-nitroanilino)-carbonyl]amino}propanamide] | – | – | – | – | – | – | – | – | –
